The subject of data set [1] is endothelial cell proliferation. The note with it: inhibition of endothelial cell proliferation; cited from earlier work.
Data set [2] relates to tubulin. Put plainly: Inhibition of polymerisation of tubulin (IPT). The data set is classed as biochemical, sheep. The note with it: Table 3; inhibition of 50% of the maximum rate of assembly; tubulin 10 μM; read-out: IPT (IC50). From the text:
Brown oil, 89%. Rf 0.3 (Cyclohexane/EtOAc, 7/3). IR (neat, cm^−1): 1609, 1593, 1564, 1428, 1205, 1157. ^1H NMR (300 MHz, CDCl3): 8.08 (d, 1H, J=8.2 Hz), 7.90 (d, 1H, J=8.4 Hz), 7.77-7.72 (ddd, 1H, J=8.2 Hz, J=6.9 Hz, J=1.3 Hz), 7.44 (ddd, 1H, J=8.3 Hz, J=7.0 Hz, J=1.0 Hz), 6.49 (d, 2H, J=2.2 Hz), 6.27 (t, 1H, J=2.2 Hz), 4.90 (q, 1H, J=6.9 Hz), 3.73 (s, 6H), 2.91 (s, 3H), 1.78 (d, 3H, J=6.9 Hz). ^13C NMR (75 MHz, CDCl3): 171.8, 163.8, 161.0 (2C), 150.7, 146.9, 133.2, 128.5, 126.6, 124.7, 121.6, 106.2 (2C), 98.0, 55.4 (2C), 43.4, 26.9, 21.1. m/z MS (APCI^+): 309 (M+H)^+. Cytotoxicity Protocol. U87, H1299 and MDA-MB231 cells are grown in Dulbecco minimal essential medium (DMEM) containing 4.5 g/L glucose and supplemented with 10% foetal calf serum and 1% glutamine. K562 and HCT116 cells are grown in RPMI 1640 medium containing 10% foetal calf serum and 1% glutamine. All the cell lines are maintained in culture at 37° C. in a humid atmosphere containing 5% CO2. The cells are inoculated in 96-well culture plates in an amount of 5000 cells per well in 50 μL of culture medium. After 24 hours of culture, the molecule to be tested, dissolved in DMSO and diluted 1/1000 in suitable culture medium, is added in each well in an amount of 50 μL per well. After 72 hours of incubation, 20 μL of resazurin is added in each well. After 1 hour of incubation, emitted fluorescence is measured at 590 nm after excitation at 560 nm using the Victor fluorescence reader (Perkin-Elmer, USA). Each concentration is tested three times and each experiment is repeated three times. Protocol for Inhibition of Polymerisation of Tubulin. When tubulin is placed at a temperature of 0° C., it is in the form of free dimers. […] The IPT of the various synthesized analogues was determined on a soluble tubulin according to the method of Shelanski^7 from sheep brains where it constitutes 20 to 25% of soluble proteins. The “antitubulin” activity is evaluated according to the method of Gaskin^8 by measuring turbidity, which is proportional to the microtubule concentration in the suspension. Turbidity is measured by absorption of the suspension at 350 nm using a spectrophotometer fitted with a cell thermostatically-controlled at 37° C. The various samples were dissolved in DMSO and incubated 10 minutes at 37° C. then 5 minutes at 0° C. The tubulin assembly and disassembly curves are obtained by absorption kinetics at 350 nm as a function of time. The IC50 determined graphically is defined as the concentration of inhibitor necessary to decrease by 50% the maximum rate of assembly of the control tubulin. In Vitro Biological Study of Compounds of the Present Invention
The most cytotoxic compounds were selected for tests of inhibition of polymerisation of tubulin. These tests were carried out under the direction of Dr J. Dubois at Gif-sur-Yvette, France. Tubulin is purified from ewe brains according to the method of Shelanski^9 by two assembly-disassembly cycles. The stock solution (15-20 mg/mL), stored at −196° C., is thawed and diluted in assembly buffer (0.1 M MES, 0.5 mM MgCl2, 1 mM EGTA, and 1 mM GTP, pH 6.6) to have a final concentration of 10 μM. Tubulin assembly is monitored by fluorescence on 96-well plates according to the method of Barron et al.^10 Inhibitor (DMSO, 1 μL) is added to the tubulin solution (10 μM, 100 μL per well) and the solution is incubated 45 minutes at room temperature. GTP (1 mM final) is then added, the solution is mixed rapidly and fluorescence (λex=350 nm, λem=440 nm) is measured on a Wallac Victor fluorometer (Perkin Elmer). The inhibition of 50% of the maximum rate of assembly (IC50) is determined in duplicate or triplicate on 10 concentrations bracketing the IC50.

The subject of data set [3] is tubulin. The note with it: binding to the colchicine site; read-out: IC50 (inhibits tubulin assembly into microtubules); cited from earlier work.
For a further data set, the system named is many human cancer lines. As to conditions: read-out: IC50 (cytotoxic); cited from earlier work.

Data on 1 compound can be found in patent publication US10653694B2, “Cytotoxic compounds which are inhibitors of the polymerisation of tubulin” (CENTRE NATIONAL DE LA RECHERCHE SCIENTIFIQUE (CNRS), priority 2014, dated 2020).

The IC50 is the concentration needed to halve the response being measured.

Where two headings read alike, the source gives them in different places.

Take `COc1ccc(/C=C\c2cc(OC)c(OC)c(OC)c2)cc1O` [CA-4, combretastatin A-4]: in data set [1], the “anti-vascular activity in vitro (in words)” value is listed as “nanomolar”. The figures for the 50% inhibitory concentration (IC50) in the data set on tubulin [2], with tubulin [3] and in the data set with many human cancer lines were […], […] and 1 to 2 nM, respectively.
